Results on two compounds are retold here after patent US11191855B2, “1,7-diaryl-1,6-heptadiene-3,5-dione derivatives, methods for the production and use thereof” (UNIVERSITÄTSKLINIKUM REGENSBURG, priority 2015, dated 2021).

The subject of this assay is S. aureus ATCC 25923. In words: Phototoxicity test c.2) (BlueV light source, emission maximum approx. 420 nm, CFU count). The note with it: Staphylococcus aureus, ATCC25923, light or radiation study, 5 min, irradiation 5 minutes, approx. 420 nm, 17.5 mW/cm^2, 5.3 J/cm^2, vs reference control; for log reduction at 10 µM: read-out: Effectiveness against S. aureus: Reduction in CFU in log10 at concentration of 10 μM; for log reduction at 50 µM: read-out: Effectiveness against S. aureus: Reduction in CFU in log10 at concentration of 50 μM. The format is cell-based, Staphylococcus aureus. How it is done:
A sample of the bacterial cell Staphylococcus. aureus (ATCC number: 25923) or Escherichia. coli (ATCC number: 25922) was removed from a cryo-freeze culture and cultured under aerobic conditions at 37° C. and 175 rpm overnight in an orbital shaker (MAXQ4000, Thermo Scientific, Dubuque, Iowa, USA). Growth was carried out in 20 mL Todd-Hewitt broth (Carl Roth, Karlsruhe, Germany) supplemented with 0.3% of yeast extract (AppliChem, Darmstadt, Germany). In a second experiment, the photosensitizers (PS) used were dissolved in Millipore water and adjusted to various concentrations. 25 μL of a bacterial suspension grown overnight ( 108/mL) was incubated with 25 μL of photosensitizer solution of the various concentrations at room temperature for 10 seconds in darkness in a 96-well plate. Next, the suspension was irradiated for 5-20 minutes. For the irradiation, the light source BlueV from […], Germany) was used, which emits light from 380 to 480 nm (emission maximum at approximately 420 nm). The applied energy density was 17.5 mW/cm^2. Each experiment was accompanied by three controls in order to exclude side effect of the irradiation/photosensitizer (PS) on the survival of the bacteria: (i) no PS, only light (=light control), (ii) no light, only PS (=dark control) and (iii) neither light nor PS (=reference control). […] All of the tests were carried out four times. […] All of the remaining PS were tested against S. aureus ATCC 25923 (FIGS. 24-33). FIGS. 21-33 show the logarithmic reduction after illumination with respect to the reference control. […] The irradiation period was 5 minutes (emission maximum at approximately 420 nm) for an applied intensity of 17.5 mW/cm^2, i.e. an applied light energy (dosage) of 5.3 J/cm^2. The average reference control (arithmetic mean with standard deviation) (no light, no PS) was 3.9×10^8/mL. The logarithmic reduction after illumination is shown with respect to the reference control.

Where only a bound is given, the exact number is not on record here.

On to `COc1cc(/C=C/C(=O)CC(=O)/C=C/c2ccc(OCCN)c(OC)c2)ccc1OCCN.Cl.Cl` [Curcumin 01a hydrochloride], for which the log reduction at 10 µM was more than 3 and the log reduction at 50 µM is more than 5.

For the compound `Cl.Cl.Cl.Cl.NCCOc1ccc(/C=C/C(=O)CC(=O)/C=C/c2ccc(OCCN)c(OCCN)c2)cc1OCCN` [Curcumin 03 hydrochloride], the log reduction at 10 µM is more than 4 and the log reduction at 50 µM is more than 5.
